Data reported in patent US8592374B2, “Neurotrophic peptides” (Research Foundation for Mental Hygiene, Inc., priority 2007, dated 2013).

Experiments:
[1] = test system: granule cell layer of the dentate gyrus; experiment: Stereological counts of DCX-, BrdU-NeuN- and c-Fos-NeuN-IR cells in the granule cell layer; assay type: in vivo, mice
Method: (§1) To study neurogenesis, mice received subcutaneous implants of extended release depot pellets containing either CNTF peptides 6a or 6c for 30 days of continuous dosing (Innovative Research of America, Sarasota, Fla.). For control groups, the pellets consisted of the carrier biopolymer only. For implantation, the mice were anesthetized with 2.5% Avertin (0.38 ml for a 25 g animal). Under sterile conditions, the pellets were then subcutaneously implanted along the anterolateral aspect of the right shoulder with a precision trochar (Innovative Research of America). The animals were then transferred to the animal colony after recovery from anesthesia. There were no complications associated with the implantation and treatment. BrdU was given as two daily i.p. injections (100 mg/kg/dose) for five days starting on day 2 of peptide treatment. Neurogenesis was assessed in the dentate gyrus (DG) by counting the number of BrdU-immunoreactive (BrdU-IR), BrdU-DCX-IR and BrdU-NeuN-IR cells in various layers of the DG. Employing principles of unbiased stereology, the optical fractionator method was used to estimate cell counts for the DG.
(§2) The following primary antibodies were used for immunohistochemistry: anti-BrdU (1:400; Accurate) a rat monoclonal raised against BrdU; anti-DCX (1:200; Santa Cruz Biotechnology Inc.), a goat polyclonal antibody raised against an 18-amino acid peptide representing residues […] of human doublecortin; anti-NeuN (1:500; Chemicon), a mouse monoclonal antibody raised against purified cell nuclei from mouse brain; Anti-c-Fos (Ab-5) (1:500; Calbiochem), a rabbit polyclonal antibody raised against a synthetic peptide corresponding to amino-acids 4-17 of human c-Fos; SMI52 (1:1000; Sternberger Monoclonals), a mouse monoclonal antibody specific for the mature neuronal marker MAP2a,b; anti-synaptophysin, SYN (1:200; Chemicon), a mouse monoclonal antibody raised against vesicular fraction of bovine brain. The following secondary antibodies were used: Alexa 488-conjugated goat anti-mouse IgG antibody and Alexa 594-conjugated goat anti-rabbit or anti-rat IgG antibody (Molecular Probes); biotinylated anti-rat IgG antibody and Cy5-conjugated goat anti-mouse antibody (Jackson ImmunoResearch).
(§3) Immunohistochemistry was performed as described elsewhere (Kuhn et al., J. Neurosci 17 (15) (1997): 5820-5829). Briefly, every 5th brain section was chosen for quantification of cell number and every 10th section was chosen for staining intensity scanning. Immunohistochemistry was performed on free floating sections. For BrdU immunohistochemistry, epitope retrieval and staining were performed as previously described (Kuhn et al., J. Neurosci 17 (15) (1997): 5820-5829).
For BrdU-DCX-, BrdU-NeuN-, and c-Fos-NeuN-IR cells, only GCL (consisting of iGCL and oGLC described above) was counted using 100× oil objective in every 10th section. To ensure objectivity, z-stacks were collected for each double IR cell and analyzed later by generating maximum projection and 3D constructs.

GCL of the dentate gyrus = experiment: MAP2 and synaptophysin expression in the GCL (mean pixel intensity), Example 4; assay type: in vivo, mice; details: 30-day treatment
Text: as §2, with “The following secondary antibodies were used: Alexa 488-conjugated goat anti-mouse IgG antibody and Alexa 594-conjugated goat anti-rabbit or anti-rat IgG antibody (Molecular Probes); biotinylated anti-rat IgG antibody and Cy5-conjugated goat anti-mouse antibody (Jackson ImmunoResearch).” left out
For MAP2 and Synaptophysin IR, the entire area of GCL was outlined on every 10th section. Maximum projection images were then generated based on confocal z-stacks, and the antibody staining was quantitated by measuring mean pixel intensity (MPI) with the help of Image-Pro Plus 5.0 software (Media Cybernetics).

[2] = test system: neural progenitor cells of the dentate gyrus; experiment: Stereological counts of BrdU-IR cells in subregions of the hippocampus, 30-day pellets; assay type: in vivo, mice
Method: All in vivo studies for characterization of peptides (stereology and behavioral analysis) were performed on 8-10-month-old female retired breeders of C57Bl6 background. The animals were acclimatized for at least 3 weeks to exclude occasional pregnant mice from the studies. Mice were group-housed (3 animals per cage) with a 12:12 light:dark cycle and with free access to food and water. All procedures were conducted in accordance with approved protocols from our institutional Animal Welfare Committee.
as §1
At the end of treatment, all animals were anesthetized with an overdose of sodium pentobarbital and transcardially perfused with 0.1 M PBS. After perfusion, the brains were removed from the skull, the left hemisphere was immediately frozen for future biochemical analysis and the right hemisphere was fixed in 4% paraformaldehyde in 0.1 M PBS for at least 24 hours at room temperature. Tissues were then stored in 30% sucrose solutions at 4° C. until sectioning. The brains were sectioned sagittaly on a freezing sliding microtome at […] through the entire hippocampus and the sections were stored in glycol anti-freeze solution (Ethylene glycol, glycerol and 0.1 M PBS in 3:3:4 ratio) at −20° C. till further processing.
as §3
Neurogenesis was assessed in the DG by counting the number of BrdU-immunoreactive (BrdU-IR), BrdU-DCX-IR and BrdU-NeuN-IR cells in various layers of the DG. The granule cell layer (GCL) was subdivided into an inner and outer half (iGCL and oGCL). The iGCL consisted of the subgranular zone (SGZ, defined as a 2-3 nuclei thick layer bordering the GCL) and the inner half of the GCL adjacent to the Hilus (Hil); the outer GCL (oGCL) was defined as the half of the GCL adjacent to the Molecular layer (Mol). A cell in the middle of the GCL was considered part of the iGCL and a cell bordering the GCL in the Mol was included in oGCL counts. […] Hil included the superficial polymorphic layer.
All sections were collected using the random uniform sampling scheme. For BrdU-IR cells, counting was performed on every 5th section using 40× oil objective of a Nikon 90i fluorescent microscope equipped with Nikon C1 three laser confocal system and a Nikon DS U1 digital camera. Employing principles of unbiased stereology, the optical fractionator method was used to estimate cell counts for the DG (West et al., Anat Rec 231 (1991): 482-497). […]

normal adult mice = experiment: Morris Water Maze task, CNTF 6a / CNTF 6c pellets 30 days; assay type: in vivo
Method: For behavioral studies, performance on the Morris Water Maze task was assessed in three groups of 10 mice each (placebo, CNTF6a and CNTF6c) which received peptide treatment for 30 days. To avoid daily stress due to injections, all animals undergoing behavioral studies received subcutaneous implants of CNTF 6a, CNTF 6c or placebo pellets as described above.
All animals for behavioral testing were coded such that the experimentator was blind to the assignment of the animals to specific treatment groups. The Morris Water Maze procedure was performed using a 110 cm diameter circular tank. Before training, the mice were handled gently for 2-3 min/day during 3 days to minimize non-specific stress. Acquisition was started with the submerged (invisible) escape platform in the North-East quadrant and each animal was given 60 sec to find the submerged escape platform. […] Five such acquisition trials were given on each day, for four consecutive days. A test for retention, or probe trial, was given 24 hours later. During the probe trial the mouse was allowed to swim in the tank without the escape platform for 60 seconds. This was followed by second and third probe trials 15 and 30 days from the first probe trial. Each probe trial was immediately followed by a “retraining session” consisting of 5 trials/animal to consolidate learned behavior.
The measures of learning were the time and distance swum to reach the escape platform. For retention during the probe trial, the tank was divided into four imaginary quadrants and a small zone where the escape platform had been (virtual platform). The measures of retention were the percent of time spent and the percent of distance swum in each quadrant, and the number of entries into the platform zone.
Mouse behavior in the Morris Water Maze was monitored by a Samsung Digital Camera (SDC 4304) mounted to the ceiling and tracked and timed by a SMART (Pan Lab/San Diego Instruments) version 2.0.14 software.
Since normal adult mice were used as experimental animals, it was crucial not to miss any effect on memory acquisition and learning that the 30-day peptide treatment might have had. Therefore, a partial training paradigm was used to evaluate learning and memory in the Morris Water Maze. Treated mice were trained on the Morris Water Maze for a total of 20 sessions spanning 4 days after which they were subjected to the first probe trial (P1). Two additional probe trials (P2 and P3) were administered 15 and 30 days after P1. […] Learning was evaluated in terms of latency and distance traveled to reach the invisible escape platform. Retention was measured on probe trials by the percent of time and travel distance in the target quadrant, and the number of crossings of the virtual platform.

[3] = 30-day treated mice (n = 5/group)
[4] = 30-day pellets, 50 nmol/peptide/animal/day

Ac-DGGL-NH2 [CNTF 6c]
Stereological counts (±SEM) of cells expressing DCX in the granule cell layer [1, 3]: 656 ± 43
Stereological counts (±SEM), NeuN-BrdU/BrdU in the granule cell layer [1, 3]: 39 ± 2
Stereological counts (±SEM) of c-fos-NeuN cells in the granule cell layer ([1]; 30-day treated mice (n = 5/group), basal activity): 247 ± 23
increase in BrdU-NeuN-IR cells in the GCL compared with placebo ([1]; 30-day treatment): 62%
increase of DCX-IR cells in the GCL compared to placebo ([1]; 30-day treatment): ~91%
increase in number of mature neurons (NeuN-IR) co-expressing c-fos in the GCL ([1]; 30-day treatment, without behavioral stimulation): ~47%
increase of MAP2 expression in the GCL (mean-pixel intensity) (GCL of the dentate gyrus): 31%
increase of synaptophysin expression in the GCL (mean-pixel intensity) (GCL of the dentate gyrus): 26%
BrdU-IR cells in oGCL, Mol or Hil compared to control ([2]; 30-day pellets): no significant differences
increase of BrdU-IR cell counts in the GCL compared to placebo [2, 4]: 31%
increase of number of BrdU-IR cells in the iGCL compared to control [2, 4]: 45%
Stereological counts (±SEM) of BrdU-IR cells, GCL [2, 3]: 560 ± 24
Stereological counts (±SEM) of BrdU-IR cells, Hil [2, 3]: 121 ± 16
Stereological counts (±SEM) of BrdU-IR cells, Mol [2, 3]: 487 ± 28
Stereological counts (±SEM) of BrdU-IR cells, iGCL [2, 3]: 486 ± 31
Stereological counts (±SEM) of BrdU-IR cells, oGCL [2, 3]: 74 ± 10
learning in the spatial reference memory task (swim latencies) (normal adult mice; 30-day pellets, 20 training sessions over 4 days): no effect
percent time spent in the target quadrant across three probe trials (normal adult mice; P1, P2, P3): spent the same percent amount of time in the target quadrant
